{
  "source": "patent US11547681B2",
  "about": "“N-acylethanolamide derivatives and uses thereof” (ELIEM THERAPEUTICS, INC., priority 2016, dated 2023)",
  "assay": "Intestinal S9 fraction stability, rat",
  "method": "The reaction mixture, minus cofactors, was prepared as described below. The test article was added into the reaction mixture at a final concentration of 1 μM. […] An aliquot of the reaction mixture (without cofactor cocktail) was equilibrated in a shaking water bath at 37° C. for 3 minutes. The reaction was initiated by the addition of cofactor cocktail, and the mixture was incubated in a shaking water bath at 37° C. Aliquots (100 μL) were withdrawn at 0, 10, 20, 30, and 60 minutes. All samples were immediately combined with 400 uL of icecold 50/50 acetonitrile/H2O containing 0.1% formic acid and internal standard to terminate the reaction. The samples were then mixed and centrifuged to precipitate proteins. Calibration standards were prepared in matched matrix. All samples and standards were assayed by LC-MS/MS using electrospray ionization for both the dosed prodrug I-9 and the expected drug (PEA). Analytical conditions are outlined in Appendix 4-1. The test article concentration at each time point was compared to the test article concentration at time 0 to determine the percent remaining at each time point. Half-lives were calculated using GraphPad software, fitting to single-phase exponential decay equation.\n(§1) Reaction mixture, minus cofactors, was prepared as described below. Test article was added into the reaction mixture at a final concentration of 1 μM. […] An aliquot of the reaction mixture (without cofactor cocktail) was equilibrated in a shaking water bath at 37° C. for 3 minutes. The reaction was initiated by the addition of cofactor cocktail, and the mixture was incubated in a shaking water bath at 37° C. Aliquots (100 μL) were withdrawn at 0, 10, 20, 30, and 60 minutes. Test article samples were immediately combined with 300 μL of ice-cold acetonitrile containing 1% formic acid. Control samples were immediately combined with 400 μL of ice-cold 50/50 acetonitrile (ACN)/dH2O containing 0.1% formic acid and internal standard to terminate the reaction. Samples were then mixed and centrifuged to precipitate proteins. Calibration standards were prepared in matched matrix. Samples and standards were assayed by LC-MS/MS using electrospray ionization for both the dosed prodrug and the expected drug (PEA). Analytical conditions are outlined in Appendix 8-1. Test article concentration at each time point was compared to test article concentration at time 0 to determine the percent remaining at each time point. Halflives were calculated using GraphPad software, fitting to a single-phase exponential decay equation.\nas §1, with “for 5” for “for 3”, “minutes. Reaction” for “minutes. The reaction”, “and” for “and the”, “both” for “both the”, “Appendix 10-1.” for “Appendix 8-1.”\nReaction mixture, minus cofactors, was prepared as described below.",
  "key": {"[1]": {"settings": "control compound, rat intestinal S9 fraction"}},
  "data": [
    {"compound": "C[C@]12CC[C@H]3[C@@H](CCC4=CC(=O)CC[C@@]43C)[C@@H]1CC[C@@H]2O", "note": "[Testosterone, testosterone, reference compound]", "values": [
      {"measurement": "CLin", "setting": "[1]", "result": "< 0.0116", "unit": "ml/min/mg protein"},
      {"measurement": "CLin, calculated value in parentheses", "setting": "[1]", "result": 0.0068, "unit": "ml/min/mg protein"},
      {"measurement": "microsomal CLint", "setting": "male, Sprague-Dawley, rat, s9, CLint (ml/min/mg protein), calculated value in parentheses, control compound, rat intestinal S9 fraction, calculated value beyond duration of experiment", "result": 6.52, "unit": "µL/min/mg"},
      {"measurement": "microsomal CLint", "setting": "male, Sprague-Dawley, rat, s9, CLint (ml/min/mg protein), control compound, rat intestinal S9 fraction", "result": "< 11.6", "unit": "µL/min/mg"},
      {"measurement": "microsomal CLint", "setting": "male, Sprague-Dawley, rat, s9, CLint, Control Compound, Rat intestinal S9 fraction", "result": "< 11.6", "unit": "µL/min/mg"},
      {"measurement": "microsomal CLint", "setting": "male, Sprague-Dawley, rat, s9, CLint, Rat intestinal S9 fraction, control compound", "result": "< 11.6", "unit": "µL/min/mg"},
      {"measurement": "microsomal CLint", "setting": "male, Sprague-Dawley, rat, s9, Clint, control compound, Example 4 control run", "result": 5.97, "unit": "µL/min/mg"},
      {"measurement": "half-life", "setting": "male, Sprague-Dawley, rat, s9, Half-life (min), calculated value in parentheses, control compound, rat intestinal S9 fraction, calculated value beyond duration of experiment", "result": 1.77, "unit": "h"},
      {"measurement": "half-life", "setting": "male, Sprague-Dawley, rat, s9, Half-life (min), control compound, rat intestinal S9 fraction", "result": "> 1", "unit": "h"},
      {"measurement": "half-life", "setting": "male, Sprague-Dawley, rat, s9, Half-life, Control Compound, Rat intestinal S9 fraction", "result": "> 1", "unit": "h"},
      {"measurement": "half-life at 1 μM", "setting": "male, Sprague-Dawley, rat, s9, Half-life, Rat intestinal S9 fraction", "result": "> 1", "unit": "h"},
      {"measurement": "half-life", "setting": "male, Sprague-Dawley, rat, s9, Half-life, calculated value in parentheses, control compound, rat intestinal S9 fraction", "result": 1.7, "unit": "h"},
      {"measurement": "half-life", "setting": "male, Sprague-Dawley, rat, s9, Half-life, control compound, Example 4 control run", "result": 1.93, "unit": "h"},
      {"measurement": "half-life", "setting": "male, Sprague-Dawley, rat, s9, Half-life, control compound, rat intestinal S9 fraction", "result": "> 1", "unit": "h"}
    ]}
  ]
}
